Measurements from ChEMBL document CHEMBL1201862, “PubChem BioAssay data set” (2004).
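Where inhibition never reached the appropriate level, the endpoint shown equals the highest concentration tested. Otherwise, values were interpolated linearly from a five-concentration, 48-hour dose response in 96-well plates. GI50 is the concentration that inhibits growth by half.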 Activity calls are given as the source filed them. No stated cut-off is given here; in the data, active = GI50 up to about 1.1 µM and inactive = higher.

Legend:
Assay in all cases: inhibition of tumour cell growth, NCI panel, 48 h
[1] = system: SK-OV-3
[2] = system: NCI-H460
[3] = system: COLO 205
[4] = system: IGROV-1
[5] = system: A549
[6] = system: SR
[7] = system: OVCAR-5
[8] = system: SK-MEL-5
[9] = system: PC-3
[10] = system: HOP-62
[11] = system: UO-31
[12] = system: MCF7
[13] = system: CCRF-CEM
[14] = system: MDA-N
[15] = system: ACHN
[16] = system: U-251
[17] = system: K562
[18] = system: OVCAR-8
[19] = system: HT-29
[20] = system: NCI-H226
[21] = system: MDA-MB-231
[22] = system: M14
[23] = system: NCI-H522
[24] = system: SF-295
[25] = system: DU-145
[26] = system: Hs-578T
[27] = system: TK-10
[28] = system: SK-MEL-2
[29] = system: SK-MEL-28
[30] = system: NCI/ADR-RES
[31] = system: SNB-19
[32] = system: T47D
[33] = system: MOLT-4
[34] = system: OVCAR-4
[35] = system: UACC-62
[36] = system: SN12C
[37] = system: OVCAR-3
[38] = system: SW-620
[39] = system: A498
[40] = system: SNB-75
[41] = system: UACC-257
[42] = system: HCT-15
[43] = system: Malme-3M
[44] = system: KM12
[45] = system: BT-549
[46] = system: LOX IMVI
[47] = system: EKVX
[48] = system: RXF 393
[49] = system: CAKI-1
[50] = system: 786-0
[51] = system: MDA-MB-435
[52] = system: HCT-116
[53] = system: SF-268
[54] = system: HCC 2998
[55] = system: NCI-H23
[56] = system: HL-60
[57] = system: SF-539
[58] = system: RPMI-8226
[59] = system: HOP-92

CC(C)(C)OC(=O)N/N=C(/N)Cc1ccc(Cl)cc1
GI50 [1]: > 100 µM (inactive)
GI50 [2]: > 100 µM (inactive)
GI50 [3]: > 100 µM (inactive)
GI50 [4]: > 100 µM (inactive)
GI50 [5]: > 100 µM (inactive)
GI50 [6]: 51.6 µM (inactive)
GI50 [7]: > 100 µM (inactive)
GI50 [8]: > 100 µM (inactive)
GI50 [9]: > 100 µM (inactive)
GI50 [10]: > 100 µM (inactive)
GI50 [11]: > 100 µM (inactive)
GI50 [12]: > 100 µM (inactive)
GI50 [13]: > 100 µM (inactive)
GI50 [14]: > 100 µM (inactive)
GI50 [15]: > 100 µM (inactive)
GI50 [16]: > 100 µM (inactive)
GI50 [17]: 37.2 µM (inactive)
GI50 [18]: > 100 µM (inactive)
GI50 [19]: 73.1 µM (inactive)
GI50 [20]: > 100 µM (inactive)
GI50 [21]: > 100 µM (inactive)
GI50 [22]: > 100 µM (inactive)
GI50 [23]: > 100 µM (inactive)
GI50 [24]: > 100 µM (inactive)
GI50 [25]: > 100 µM (inactive)
GI50 [26]: > 100 µM (inactive)
GI50 [27]: > 100 µM (inactive)
GI50 [28]: > 100 µM (inactive)
GI50 [29]: > 100 µM (inactive)
GI50 [30]: > 100 µM (inactive)
GI50 [31]: > 100 µM (inactive)
GI50 [32]: > 100 µM (inactive)
GI50 [33]: > 100 µM (inactive)
GI50 [34]: > 100 µM (inactive)
GI50 [35]: > 100 µM (inactive)
GI50 [36]: > 100 µM (inactive)
GI50 [37]: > 100 µM (inactive)
GI50 [38]: > 100 µM (inactive)
GI50 [39]: > 100 µM (inactive)
GI50 [40]: > 100 µM (inactive)
GI50 [41]: > 100 µM (inactive)
GI50 [42]: > 100 µM
GI50 [43]: > 100 µM (inactive)
GI50 [44]: > 100 µM (inactive)
GI50 [45]: > 100 µM (inactive)
GI50 [46]: > 100 µM (inactive)
GI50 [47]: > 100 µM (inactive)
GI50 [48]: > 100 µM (inactive)
GI50 [49]: > 100 µM (inactive)
GI50 [50]: > 100 µM (inactive)
GI50 [51]: > 100 µM (inactive)
GI50 [52]: > 100 µM (inactive)
GI50 [53]: > 100 µM (inactive)
GI50 [54]: > 100 µM (inactive)

COC(=O)C1=COc2c(n(C)c3ccccc23)-c2ccccc21
GI50 [1]: > 100 µM (inactive)
GI50 [2]: > 100 µM (inactive)
GI50 [3]: > 100 µM (inactive)
GI50 [4]: 20.2 µM (inactive)
GI50 [6]: 4.21 µM (inactive)
GI50 [7]: > 100 µM (inactive)
GI50 [8]: 71.1 µM (inactive)
GI50 [9]: > 100 µM (inactive)
GI50 [10]: > 100 µM (inactive)
GI50 [11]: > 100 µM (inactive)
GI50 [12]: > 100 µM (inactive)
GI50 [13]: > 100 µM (inactive)
GI50 [14]: > 100 µM (inactive)
GI50 [15]: 74 µM (inactive)
GI50 [16]: > 100 µM (inactive)
GI50 [17]: > 100 µM (inactive)
GI50 [18]: > 100 µM (inactive)
GI50 [19]: > 100 µM (inactive)
GI50 [20]: > 100 µM (inactive)
GI50 [21]: > 100 µM (inactive)
GI50 [55]: > 100 µM (inactive)
GI50 [22]: > 100 µM (inactive)
GI50 [56]: > 100 µM (inactive)
GI50 [24]: > 100 µM (inactive)
GI50 [25]: > 100 µM (inactive)
GI50 [57]: 81.1 µM (inactive)
GI50 [26]: > 100 µM (inactive)
GI50 [27]: > 100 µM (inactive)
GI50 [28]: > 100 µM (inactive)
GI50 [30]: > 100 µM (inactive)
GI50 [31]: > 100 µM (inactive)
GI50 [32]: > 100 µM (inactive)
GI50 [33]: > 100 µM (inactive)
GI50 [58]: 97.3 µM (inactive)
GI50 [35]: > 100 µM (inactive)
GI50 [36]: > 100 µM (inactive)
GI50 [37]: > 100 µM (inactive)
GI50 [38]: > 100 µM (inactive)
GI50 [39]: > 100 µM (inactive)
GI50 [40]: 27.6 µM (inactive)
GI50 [41]: > 100 µM (inactive)
GI50 [42]: > 100 µM
GI50 [43]: > 100 µM (inactive)
GI50 [44]: > 100 µM (inactive)
GI50 [45]: > 100 µM (inactive)
GI50 [46]: > 100 µM (inactive)
GI50 [47]: > 100 µM (inactive)
GI50 [48]: > 100 µM (inactive)
GI50 [49]: > 100 µM (inactive)
GI50 [50]: > 100 µM (inactive)
GI50 [51]: > 100 µM (inactive)
GI50 [52]: > 100 µM (inactive)
GI50 [53]: > 100 µM (inactive)

CCCC1C2=C(C(=O)OC2=O)C2C(CC)CC3=C(C(=O)OC3=O)C12 (stereo unspecified)
GI50 [1]: > 100 µM (inactive)
GI50 [2]: > 100 µM (inactive)
GI50 [3]: > 100 µM (inactive)
GI50 [4]: > 100 µM (inactive)
GI50 [5]: > 100 µM (inactive)
GI50 [6]: > 100 µM (inactive)
GI50 [7]: > 100 µM (inactive)
GI50 [8]: > 100 µM (inactive)
GI50 [9]: > 100 µM (inactive)
GI50 [10]: > 100 µM (inactive)
GI50 [11]: > 100 µM (inactive)
GI50 [12]: > 100 µM (inactive)
GI50 [13]: > 100 µM (inactive)
GI50 [14]: > 100 µM (inactive)
GI50 [15]: > 100 µM (inactive)
GI50 [16]: > 100 µM (inactive)
GI50 [17]: > 100 µM (inactive)
GI50 [18]: > 100 µM (inactive)
GI50 [19]: > 100 µM (inactive)
GI50 [20]: > 100 µM (inactive)
GI50 [21]: > 100 µM (inactive)
GI50 [55]: > 100 µM (inactive)
GI50 [22]: > 100 µM (inactive)
GI50 [56]: > 100 µM (inactive)
GI50 [24]: > 100 µM (inactive)
GI50 [25]: > 100 µM (inactive)
GI50 [57]: > 100 µM (inactive)
GI50 [26]: 18.4 µM (inactive)
GI50 [27]: > 100 µM (inactive)
GI50 [28]: > 100 µM (inactive)
GI50 [29]: > 100 µM (inactive)
GI50 [30]: > 100 µM (inactive)
GI50 [31]: > 100 µM (inactive)
GI50 [32]: > 100 µM (inactive)
GI50 [33]: > 100 µM (inactive)
GI50 [58]: > 100 µM (inactive)
GI50 [35]: > 100 µM (inactive)
GI50 [36]: > 100 µM (inactive)
GI50 [37]: > 100 µM (inactive)
GI50 [38]: > 100 µM (inactive)
GI50 [39]: > 100 µM (inactive)
GI50 [40]: > 100 µM (inactive)
GI50 [41]: > 100 µM (inactive)
GI50 [42]: > 100 µM
GI50 [44]: > 100 µM (inactive)
GI50 [45]: > 100 µM (inactive)
GI50 [46]: > 100 µM (inactive)
GI50 [47]: > 100 µM (inactive)
GI50 [49]: > 100 µM (inactive)
GI50 [50]: > 100 µM (inactive)
GI50 [51]: > 100 µM (inactive)
GI50 [52]: > 100 µM (inactive)
GI50 [59]: > 100 µM (inactive)
GI50 [53]: > 100 µM (inactive)
